Assay results taken from patent US6737383B1, “Herbicidal oxadiazolidines” (priority 1999, dated 2004).

Assays:
blackgrass = test: Test B pre/postemergence blackgrass; type: in vivo, Alopecurus myosuroides; conditions: for Plant response rating, Blackgrass: scale of 0 to 10 where 0 is no effect and 10 is complete control
Method in brief: (§1)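 Test chemicals in a non-phytotoxic solvent mixture with surfactant were sprayed preemergence onto planted seeds and postemergence onto plants 2 to 18 cm tall (1- to 4-leaf stage). After twelve to sixteen days in a greenhouse, injury was visually rated against untreated controls from 0 (no effect) to 10 (complete control).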

morningglory = test: Test B pre/postemergence morningglory; type: in vivo, Ipomoea hederacea; conditions: for Plant response rating, Morningglory: scale of 0 to 10 where 0 is no effect and 10 is complete control
Method in brief: as §1

velvetleaf = test: Test B pre/postemergence velvetleaf; type: in vivo, Abutilon theophrasti; conditions: for Velvetleaf plant response rating: Rate 125 g/ha, scale 0 to 10, 0 is no effect, 10 is complete control; for Plant response rating, Velvetleaf: scale of 0 to 10 where 0 is no effect and 10 is complete control
Method in brief: as §1

rape = test: Test B pre/postemergence rape; type: in vivo, Brassica napus; conditions: for Plant response rating, Rape: scale of 0 to 10 where 0 is no effect and 10 is complete control
Method in brief: as §1

crabgrass = test: Test B pre/postemergence crabgrass; type: in vivo, Digitaria sanguinalis; conditions: for Plant response rating, Crabgrass: scale of 0 to 10 where 0 is no effect and 10 is complete control
Method in brief: as §1

pigweed = test: Test B pre/postemergence pigweed; type: in vivo, Amaranthus retroflexus; conditions: for Plant response rating, Redroot pigweed: scale of 0 to 10 where 0 is no effect and 10 is complete control
Method in brief: as §1

sugar beet = test: Test B pre/postemergence sugar beet; type: in vivo, Beta vulgaris; conditions: for Plant response rating, Sugarbeets: scale of 0 to 10 where 0 is no effect and 10 is complete control
Method in brief: as §1

surinam grass = test: Test B pre/postemergence surinam grass; type: in vivo, Brachiaria decumbens; conditions: for Plant response rating, B. signalgrass: scale of 0 to 10 where 0 is no effect and 10 is complete control
Method in brief: as §1

bedstraw = test: Test B pre/postemergence bedstraw; type: in vivo, Galium aparine; conditions: Preemergence
Method in brief: as §1

wild oat = test: Test B pre/postemergence wild oat; type: in vivo, Avena fatua; conditions: for Plant response rating, Wild oats: scale of 0 to 10 where 0 is no effect and 10 is complete control
Method in brief: as §1

cocklebur = test: Test B pre/postemergence cocklebur; type: in vivo, Xanthium strumarium; conditions: for Plant response rating, Cocklebur: scale of 0 to 10 where 0 is no effect and 10 is complete control
Method in brief: as §1

soybean = test: Test B pre/postemergence soybean; type: in vivo, Glycine max; conditions: for Plant response rating, Soybean: scale of 0 to 10 where 0 is no effect and 10 is complete control
Method in brief: as §1

giant foxtail = test: Test B pre/postemergence giant foxtail; type: in vivo, Setaria faberii; conditions: for Plant response rating, Giant foxtail: scale of 0 to 10 where 0 is no effect and 10 is complete control
Method in brief: as §1

corn = test: Test B pre/postemergence corn; type: in vivo, Zea mays; conditions: for Plant response rating, Corn: scale of 0 to 10 where 0 is no effect and 10 is complete control
Method in brief: as §1

wheat = test: Test B pre/postemergence wheat; type: in vivo, Triticum aestivum; conditions: for Plant response rating, Wheat: scale of 0 to 10 where 0 is no effect and 10 is complete control
Method in brief: as §1

purple nutsedge = test: Test B pre/postemergence purple nutsedge; type: in vivo, Cyperus rotundus
Method in brief: as §1

[1] = Postemergence, Rate 31 g/ha, visual rating, scale 0 to 10 (0 no effect, 10 complete control)
[2] = Postemergence, Rate 62 g/ha, scale of 0 to 10, 0 is no effect, 10 is complete control
[3] = Postemergence, Rate 125 g/ha, scale 0 to 10, 0 is no effect, 10 is complete control
[4] = Preemergence, Rate 31 g/ha, visual rating, scale 0 to 10 (0 no effect, 10 complete control)
[5] = Preemergence, Rate 125 g/ha, scale 0 to 10, 0 is no effect, 10 is complete control

CC(C)N(C(=O)n1oc(=O)n(C[Si](C)(C)C)c1=O)c1ccc(F)cc1F [Compound 518]
Blackgrass plant response rating (blackgrass; [1]): 4 | Blackgrass plant response rating (blackgrass; [2]): 4 | Blackgrass plant response rating (blackgrass; [3]): 7 | Blackgrass plant response rating (blackgrass; [4]): 4 | Plant response rating, Blackgrass (blackgrass; Preemergence, Rate 62 g/ha): 7 | Blackgrass plant response rating (blackgrass; [5]): 8 | Blackgrass plant response rating (0 to 10 scale) (blackgrass; Preemergence, Rate 250 g/ha): 7 | Plant response rating, Blackgrass (blackgrass; Rate 250 g/ha, Postemergence): 7 | Morningglory plant response rating (morningglory; [1]): 5 | Morningglory plant response rating (morningglory; [2]): 5 | Morningglory plant response rating (morningglory; [3]): 5 | Plant response rating, Morningglory (morningglory; Preemergence, Rate 62 g/ha): 0 | Morningglory plant response rating (morningglory; [5]): 0 | Morningglory plant response rating (0 to 10 scale) (morningglory; Preemergence, Rate 250 g/ha): 0 | Plant response rating, Morningglory (morningglory; Rate 250 g/ha, Postemergence): 8 | Velvetleaf plant response rating (velvetleaf; Postemergence): 2 | Plant response rating, Velvetleaf (velvetleaf; Preemergence, Rate 62 g/ha): 0 | Velvetleaf plant response rating (velvetleaf; Preemergence): 0 | Velvetleaf plant response rating (0 to 10 scale) (velvetleaf; Preemergence, Rate 250 g/ha): 0 | Plant response rating, Velvetleaf (velvetleaf; Rate 250 g/ha, Postemergence): 4 | Rape plant response rating (rape; [1]): 0 | Rape plant response rating (rape; [2]): 0 | Rape plant response rating (rape; [3]): 7 | Plant response rating, Rape (rape; Preemergence, Rate 62 g/ha): 0 | Rape plant response rating (rape; [5]): 0 | Rape plant response rating (0 to 10 scale) (rape; Preemergence, Rate 250 g/ha): 0 | Plant response rating, Rape (rape; Rate 250 g/ha, Postemergence): 7 | Crabgrass plant response rating (crabgrass; [1]): 0 | Crabgrass plant response rating (crabgrass; [2]): 0 | Crabgrass plant response rating (crabgrass; [3]): 2 | Crabgrass plant response rating (crabgrass; [4]): 0 | Plant response rating, Crabgrass (crabgrass; Preemergence, Rate 62 g/ha): 0 | Crabgrass plant response rating (crabgrass; [5]): 0 | Crabgrass plant response rating (0 to 10 scale) (crabgrass; Preemergence, Rate 250 g/ha): 0 | Plant response rating, Crabgrass (crabgrass; Rate 250 g/ha, Postemergence): 10 | Redroot pigweed plant response rating (pigweed; [1]): 0 | Redroot pigweed plant response rating (pigweed; [2]): 0 | Redroot pigweed plant response rating (pigweed; [3]): 0 | Plant response rating, Redroot pigweed (pigweed; Preemergence, Rate 62 g/ha): 2 | Redroot pigweed plant response rating (pigweed; [5]): 2 | Redroot pigweed plant response rating (0 to 10 scale) (pigweed; Preemergence, Rate 250 g/ha): 4 | Plant response rating, Redroot pigweed (pigweed; Rate 250 g/ha, Postemergence): 0 | Sugarbeets plant response rating (sugar beet; [1]): 0 | Sugarbeets plant response rating (sugar beet; [2]): 0 | Sugarbeets plant response rating (sugar beet; [3]): 3 | Plant response rating, Sugarbeets (sugar beet; Preemergence, Rate 62 g/ha): 0 | Sugarbeets plant response rating (sugar beet; [5]): 2 | Sugarbeets plant response rating (0 to 10 scale) (sugar beet; Preemergence, Rate 250 g/ha): 2 | Plant response rating, Sugarbeets (sugar beet; Rate 250 g/ha, Postemergence): 3 | B. signalgrass plant response rating (surinam grass; [1]): 3 | B. signalgrass plant response rating (surinam grass; [3]): 7 | B. signalgrass plant response rating (surinam grass; [4]): 0 | Plant response rating, B. signalgrass (surinam grass; Preemergence, Rate 62 g/ha): 0 | B. signalgrass plant response rating (surinam grass; [5]): 3 | B. signalgrass plant response rating (0 to 10 scale, 0 is no effect, 10 is complete control) (surinam grass; Preemergence, Rate 250 g/ha): 10 | Plant response rating, B. signalgrass (surinam grass; Rate 250 g/ha, Postemergence): 7 | Bedstraw plant response rating (bedstraw; Rate 31 g/ha, visual rating, scale 0 to 10 (0 no effect, 10 complete control)): 0 | Plant response rating, Bedstraw (bedstraw; Rate 62 g/ha, scale of 0 to 10 where 0 is no effect and 10 is complete control): 0 | Bedstraw plant response rating (bedstraw; Rate 125 g/ha, scale 0 to 10, 0 is no effect, 10 is complete control): 0 | Bedstraw plant response rating (0 to 10 scale) (bedstraw; Rate 250 g/ha): 0 | Wild oats plant response rating (wild oat; [1]): 0 | Wild oats plant response rating (wild oat; [2]): 0 | Wild oats plant response rating (wild oat; [3]): 2 | Plant response rating, Wild oats (wild oat; Preemergence, Rate 62 g/ha): 4 | Wild oats plant response rating (wild oat; [5]): 6 | Wild oats plant response rating (0 to 10 scale) (wild oat; Preemergence, Rate 250 g/ha): 8 | Plant response rating, Wild oats (wild oat; Rate 250 g/ha, Postemergence): 2 | Cocklebur plant response rating (cocklebur; [1]): 0 | Cocklebur plant response rating (cocklebur; [2]): 0 | Cocklebur plant response rating (cocklebur; [3]): 0 | Cocklebur plant response rating (cocklebur; [4]): 0 | Plant response rating, Cocklebur (cocklebur; Preemergence, Rate 62 g/ha): 0 | Cocklebur plant response rating (cocklebur; [5]): 0 | Cocklebur plant response rating (0 to 10 scale) (cocklebur; Preemergence, Rate 250 g/ha): 0 | Plant response rating, Cocklebur (cocklebur; Rate 250 g/ha, Postemergence): 0 | Soybean plant response rating (soybean; [1]): 4 | Soybean plant response rating (soybean; [2]): 4 | Soybean plant response rating (soybean; [3]): 5 | Plant response rating, Soybean (soybean; Preemergence, Rate 62 g/ha): 0 | Soybean plant response rating (soybean; [5]): 0 | Soybean plant response rating (0 to 10 scale) (soybean; Preemergence, Rate 250 g/ha): 0 | Plant response rating, Soybean (soybean; Rate 250 g/ha, Postemergence): 5 | Giant foxtail plant response rating (giant foxtail; [1]): 0 | Giant foxtail plant response rating (giant foxtail; [2]): 0 | Giant foxtail plant response rating (giant foxtail; [3]): 0 | Giant foxtail plant response rating (giant foxtail; [4]): 0 | Plant response rating, Giant foxtail (giant foxtail; Preemergence, Rate 62 g/ha): 0 | Giant foxtail plant response rating (giant foxtail; [5]): 0 | Giant foxtail plant response rating (0 to 10 scale) (giant foxtail; Preemergence, Rate 250 g/ha): 0 | Plant response rating, Giant foxtail (giant foxtail; Rate 250 g/ha, Postemergence): 2 | Corn plant response rating (corn; [1]): 0 | Corn plant response rating (corn; [2]): 0 | Corn plant response rating (corn; [3]): 0 | Corn plant response rating (corn; [4]): 0 | Plant response rating, Corn (corn; Preemergence, Rate 62 g/ha): 0 | Corn plant response rating (corn; [5]): 0 | Corn plant response rating (0 to 10 scale) (corn; Preemergence, Rate 250 g/ha): 0 | Plant response rating, Corn (corn; Rate 250 g/ha, Postemergence): 0 | Wheat plant response rating (wheat; [1]): 0 | Wheat plant response rating (wheat; [2]): 0 | Wheat plant response rating (wheat; [3]): 0 | Plant response rating, Wheat (wheat; Preemergence, Rate 62 g/ha): 0 | Wheat plant response rating (wheat; [5]): 2 | Wheat plant response rating (0 to 10 scale) (wheat; Preemergence, Rate 250 g/ha): 3 | Plant response rating, Wheat (wheat; Rate 250 g/ha, Postemergence): 0 | Nutsedge plant response rating (purple nutsedge; [1]): 0 | Nutsedge plant response rating (purple nutsedge; [2]): 0 | Nutsedge plant response rating (purple nutsedge; [3]): 0 | Plant response rating, Nutsedge (purple nutsedge; Preemergence, Rate 62 g/ha, scale of 0 to 10 where 0 is no effect and 10 is complete control): 0 | Nutsedge plant response rating (purple nutsedge; [5]): 0 | Nutsedge plant response rating (0 to 10 scale) (purple nutsedge; Preemergence, Rate 250 g/ha): 0
